According to patent publication US12398154B2, “Azaquinazoline pan-KRas inhibitors” (Mirati Therapeutics, Inc., priority 2020, dated 2025):

Experiments:
KRas G12R = KRas G12R (Homo sapiens, UniProt P01116, G12R); assay: biochemical;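 further: TR-FRET displacement assay of compound binding to KRas, read after one hour at room temperature, potency from a four-parameter fit of percent-of-control values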
Protocol: (§2) The ability of a compound to bind to KRas was measured using a TR-FRET displacement assay. […] After a 60-minute incubation at room temperature, the reaction was measured using a BMG LABTECH CLARIO star Plus via TR-FRET. […] The POC values were fit to a 4-parameter IC50 equation and the IC50 value reported.

pERK in MKN1 cells = assay: Inhibition of KRas phosphorylation of ERK (Cisbio HTRF pERK assay); conditions: Homo sapiens, MKN-1, 3 h, read-out: Inhibition (HTRF IC50) of KRas-mediated Phosphorylation of ERK, MKN1
KRas G12V = KRas G12V (Homo sapiens, UniProt P01116, G12V); assay: biochemical;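 further: KRas binding measured by TR-FRET displacement at room temperature, IC50 fitted from percent of control values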
Protocol: as §2

pERK in H727 cells = assay: Inhibition of KRas phosphorylation of ERK (Cisbio HTRF pERK assay); conditions: Homo sapiens, NCI-H727, read-out: Inhibition (HTRF IC50) of KRas-mediated Phosphorylation of ERK, H727
pERK in A549 cells = assay: as above; conditions: Homo sapiens, A549, read-out: Inhibition (HTRF IC50) of KRas-mediated Phosphorylation of ERK, A549
Protocol: (§3) To harvest cells from flask using 0.05% Trypsin/EDTA solution. Add 10 mL of media to stop trypsinizing. Pipette the cells into a conical bottom 50 mL centrifuge tube and centrifuge 5 min×1000 rpm. • 2. Re-suspend the cell pellet in media, take a cell count, and then adjust the cell density using fresh media. • 3. Seed 6,000 cells into cell culture plate with 50 μL media. […] Incubate cell plate overnight in a 37° C., 5% CO2 incubator. • Compound titrations • 1. Use Tecan to complete the compound addition. Compounds start from 10 uM top, 3-fold dilution, and 10 doses. The final DMSO concentration is 0.8%. Dispensed 0.2 uM Trametinib as Min control. • 2. Incubate cell plate for 3 hrs in the incubator. • Detection with cisbio pERK HTRF kit • 1. […] At the end of the compound treatment, flick-off the media. • 3. Add 35 μL of lysis buffer per well using a Multidrop Combi. Then place on a plate agitator shaking at 300 rpm at 4° C. for 40 mins. • 4. Make up the HTRF antibody buffer. For each assay plate, mix 50 μL of d2-conjugate antibody with 950 μL of detection buffer. Similarly, mix 50 μL of Cryptate antibody with 950 μL of detection buffer. Then mix the two diluted antibodies together. • 5. Dispense 3.4 μL the antibody buffer to wells of an empty assay plate. Seal the plate and centrifuge plate 30 sec×1000 rpm. • 6. At the end of the 4° C. lysis, centrifuge the lysate plates 3 mins×1500 rpm. • 7. Use the Bravo to transfer 13.6 μL of lysate from cell culture plate to assay plate.
(§4) Then incubate assay plate for 2 hrs at room temperature. […] At the end of incubation, read plate on the Envision after centrifuging plate 30 sec× • 1000 rpm.

pERK in HCT116 cells = assay: as above; conditions: Homo sapiens, HCT-116, read-out: Inhibition (HTRF IC50) of KRas-mediated Phosphorylation of ERK, HCT116
KRas G12D = KRas G12D (Homo sapiens, UniProt P01116, G12D); assay: biochemical;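 further: TR-FRET displacement binding assay on KRas, read after a one-hour incubation at room temperature, IC50 fitted from percent-of-control values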
Protocol: as §2

pERK in H460 cells = assay: Inhibition of KRas phosphorylation of ERK (Cisbio HTRF pERK assay); conditions: Homo sapiens, NCI-H460, read-out: Inhibition (HTRF IC50) of KRas-mediated Phosphorylation of ERK, H460
Protocol: as §3, §4

[1] = tested on: phospho-ERK in MKN1 (WTdep) cells; assay: Inhibition of KRas-mediated phosphorylation of ERK (in-cell western); type: cell-based; conditions: Homo sapiens, MKN-1, 3 hours compound, phospho-ERK normalized to GAPDH
Summary of the method: (§1)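 Fixed-cell immunodetection of ERK phosphorylation following 3 h compound treatment (0.5% DMSO). IC50 derived by 4-parameter fit of GAPDH-normalized signal versus DMSO control.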

[2] = tested on: phospho-ERK in AsPC-1 (G12D) cells; assay: as above; type: cell-based; conditions: Homo sapiens, ASPC1, 3 h, 3 hours compound, phospho-ERK normalized to GAPDH
Summary of the method: as §1

[3] = tested on: phospho-ERK in NCI-H727 (G12V) cells; assay: as above; type: cell-based; conditions: Homo sapiens, NCI-H727, 3 h, 3 hours compound, phospho-ERK normalized to GAPDH
Summary of the method: as §1

[4] = tested on: phospho-ERK in A549 (G12S) cells; assay: as above; type: cell-based; conditions: Homo sapiens, 3 hours compound, phospho-ERK normalized to GAPDH
Summary of the method: as §1

[5] = tested on: phospho-ERK in HCT116 (G13D) cells; assay: as above; type: cell-based; conditions: Homo sapiens, HCT-116, 3 hours compound, phospho-ERK normalized to GAPDH
Summary of the method: as §1

[6] = tested on: phospho-ERK in PSN-1 (G12R) cells; assay: as above; type: cell-based; conditions: Homo sapiens, PSN1, 3 hours compound, phospho-ERK normalized to GAPDH
Summary of the method: as §1

[7] = tested on: phospho-ERK in NCI-H460 (Q61H) cells; assay: as above; type: cell-based; conditions: Homo sapiens, NCI-H460, 3 h, 3 hours compound, phospho-ERK normalized to GAPDH
Summary of the method: as §1

pERK in ASPC1 cells = assay: Inhibition of KRas phosphorylation of ERK (Cisbio HTRF pERK assay); conditions: Homo sapiens, ASPC1, read-out: Inhibition (HTRF IC50) of KRas-mediated Phosphorylation of ERK, AsPC-1
pERK in PSN1 cells = assay: as above; conditions: Homo sapiens, PSN1, 3 h, read-out: Inhibition (HTRF IC50) of KRas-mediated Phosphorylation of ERK, PSN1
[8] = tested on: phospho-ERK in NCI-H358 (G12C) cells; assay: Inhibition of KRas-mediated phosphorylation of ERK (in-cell western); type: cell-based; conditions: Homo sapiens, 3 hours compound, phospho-ERK normalized to GAPDH
Summary of the method: as §1

pERK in H358 cells = assay: Inhibition of KRas phosphorylation of ERK (Cisbio HTRF pERK assay); conditions: Homo sapiens, NCI-H358, read-out: Inhibition (HTRF IC50) of KRas-mediated Phosphorylation of ERK, H358
KRas G12C = KRas G12C (Homo sapiens, UniProt P01116, G12C); assay: biochemical;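 further: binding to KRas assessed by TR-FRET displacement after one hour incubation at room temperature, potency fitted from percent-of-control values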
KRas G12C, sequence (P01116 1-169 isoform P01116-2 G12C): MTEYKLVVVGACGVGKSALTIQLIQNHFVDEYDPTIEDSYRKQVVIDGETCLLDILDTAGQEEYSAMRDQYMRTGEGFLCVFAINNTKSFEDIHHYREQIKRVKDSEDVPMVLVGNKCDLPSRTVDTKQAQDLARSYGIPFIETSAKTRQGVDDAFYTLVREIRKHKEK
Protocol: as §2

KRas G12D, sequence (P01116 1-169 isoform P01116-2 G12D): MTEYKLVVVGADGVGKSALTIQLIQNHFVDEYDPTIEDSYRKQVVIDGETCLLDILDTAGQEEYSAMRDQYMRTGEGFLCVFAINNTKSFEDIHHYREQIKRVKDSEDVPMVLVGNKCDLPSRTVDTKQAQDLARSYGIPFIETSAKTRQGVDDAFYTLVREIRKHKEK
KRas G12V, sequence (P01116 1-169 isoform P01116-2 G12V): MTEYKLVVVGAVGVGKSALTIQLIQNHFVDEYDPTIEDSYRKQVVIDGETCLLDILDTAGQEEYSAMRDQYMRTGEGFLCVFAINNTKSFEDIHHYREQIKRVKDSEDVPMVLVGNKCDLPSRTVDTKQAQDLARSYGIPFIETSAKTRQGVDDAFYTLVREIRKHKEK
KRas G12R, sequence (P01116 1-169 isoform P01116-2 G12R): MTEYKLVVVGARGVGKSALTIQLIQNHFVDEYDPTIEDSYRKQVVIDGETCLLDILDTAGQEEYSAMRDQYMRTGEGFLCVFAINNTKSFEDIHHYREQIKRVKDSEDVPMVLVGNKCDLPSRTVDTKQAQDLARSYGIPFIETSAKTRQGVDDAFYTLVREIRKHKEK

| IC50 (KRas G12R) | IC50 (pERK in MKN1 cells) | IC50 (KRas G12V) | IC50 (pERK in H727 cells) | IC50 (pERK in A549 cells) | IC50 (pERK in HCT116 cells) | IC50 (KRas G12D) | IC50 (pERK in H460 cells) | IC50 (pERK in ASPC1 cells) | IC50 (pERK in PSN1 cells) | IC50 (pERK in H358 cells) | IC50 (KRas G12C) | SMILES | IC50 [1] | IC50 [2] | IC50 [3] | IC50 [4] | IC50 [5] | IC50 [6] | IC50 [7] | IC50 [8] |
| --- | --- | --- | --- | --- | --- | --- | --- | --- | --- | --- | --- | --- | --- | --- | --- | --- | --- | --- | --- | --- |
| ≤ 0.002 µM | 0.001 µM | ≤ 0.002 µM | 0.004 µM | 0.002 µM | 0.007 µM | ≤ 0.002 µM | 0.004 µM | 0.007 µM | 0.922 µM |  |  | CCc1c(F)ccc2cc(O)cc(-c3ncc4c(N5C[C@@H]6C[C@H](C5)[C@H](O)C6)nc(OC[C@@]56CCCN5C[C@H](F)C6)nc4c3F)c12 (single isomer, unassigned) [Example 140] | 2 nM | 27 nM | 28 nM | 9 nM | 11 nM | 1 nM | 17 nM |  |
| ≤ 0.002 µM |  | ≤ 0.002 µM |  |  |  | 0.007 µM |  |  |  |  |  | CCc1c(F)ccc2cc(O)cc(-c3ncc4c(NC56CC(O)(C5)C6)nc(OC[C@@]56CCCN5C[C@H](F)C6)nc4c3F)c12 [Example 166] |  |  | ≥ 10000 nM | ≥ 10000 nM | ≥ 10000 nM | ≥ 10000 nM |  | 328 nM |
|  | 0.007 µM |  | 0.036 µM | 0.044 µM | 0.082 µM |  | 0.042 µM | 0.008 µM | 3.79 µM |  |  | CCc1c(F)ccc2cc(O)cc(-c3ncc4c(N5CCC[C@@H](O)C5)nc(OC[C@@]56CCCN5C[C@H](F)C6)nc4c3F)c12 [Example 193] | 4 nM | 94 nM | 133 nM |  | 63 nM |  | 44 nM | 41 nM |
|  | 0.002 µM |  | 0.006 µM | 0.005 µM | 0.011 µM |  | 0.005 µM | 0.003 µM | 1.01 µM |  |  | CCc1c(F)ccc2cc(O)cc(-c3ncc4c(N5CCOC[C@@](C)(O)C5)nc(OC[C@@]56CCCN5C[C@H](F)C6)nc4c3F)c12 [Example 200] | 3 nM | 47 nM | 67 nM | 3 nM | 21 nM |  | 22 nM | 13 nM |
| ≤ 0.002 µM | 0.005 µM | ≤ 0.002 µM | 0.033 µM | 0.009 µM | 0.047 µM | ≤ 0.002 µM | 0.028 µM | 0.007 µM | 2.49 µM | 0.004 µM | ≤ 0.002 µM | CCc1c(F)ccc2cc(O)cc(-c3ncc4c(N5CCC[C@@](C)(O)C5)nc(OCC5(CN6CCCC6)CC5)nc4c3F)c12 [Example 202, (3R)-1-[7-(8-ethyl-7-fluoro-3-hydroxy-1-naphthyl)-8-fluoro-2-[[1-(pyrrolidin-1-ylmethyl)cyclopropyl]methoxy]pyrido[4,3-d]pyrimidin-4-yl]-3-methyl-piperidin-3-ol] | 3 nM | 60 nM | 159 nM |  |  |  | 74 nM |  |
|  |  |  |  |  |  |  |  |  |  |  |  | CCc1c(F)ccc2cc(O)cc(-c3ncc4c(N5CCCC(O)C5)nc(OC[C@@]56CCCN5C[C@H](F)C6)nc4c3F)c12 (stereo partly drawn) [Example 299, 1-(7-(8-ethyl-7-fluoro-3-hydroxynaphthalen-1-yl)-8-fluoro-2-(((2R,7aS)-2-fluorohexahydro-1H-pyrrolizin-7a-yl)methoxy)pyrido[4,3-d]pyrimidin-4-yl)piperidin-3-ol] |  |  | 126 nM | 108 nM | 333 nM | ≥ 10000 nM |  | 29 nM |
| ≤ 0.002 µM | 0.003 µM | ≤ 0.002 µM | 0.082 µM | 0.065 µM | 0.179 µM | ≤ 0.002 µM | 0.12 µM | 0.031 µM | 2.53 µM | 0.026 µM |  | CCc1c(F)ccc2cc(O)cc(-c3ncc4c(N5CCC[C@@](C)(O)C5)nc(OC[C@]56CCCN5[C@H](CO)CC6)nc4c3F)c12 [Example 302, (R)-1-(7-(8-ethyl-7-fluoro-3-hydroxynaphthalen-1-yl)-8-fluoro-2-(((3S,7aR)-3-(hydroxymethyl)tetrahydro-1H-pyrrolizin-7a(5H)-yl)methoxy)pyrido[4,3-d]pyrimidin-4-yl)-3-methylpiperidin-3-ol] | 5 nM | 152 nM | 360 nM |  |  |  | 193 nM |  |
